pIC50: −log10 of the molar value.
The compounds below were run against Mitogen-activated protein kinase kinase kinase kinase 1 (Homo sapiens, UniProt Q92918) (assay: HPK1-SLP76 TR-FRET ASSAY).
Protocol: Compounds are serially diluted (3-fold in 100% DMSO) across a 384-well polypropylene source plated from column 3 to column 12 and column 13 to column 22, to yield 10 concentration dose responses for each test compound. Columns 1, 2, 23 and 24 contain either only DMSO or a pharmacological known control inhibitor. […] Enzyme, Substrate and Stop/Detection solutions are prepared in assay buffer. […] Kinase reaction is initiated with addition of 2.5 μL of substrate solution (ATP 10uM and SLP7610 nM Final) and allowed to proceed for 60 minutes. […] Plates are incubated at room temperature for 30 minutes. Reactions are initiated by addition of 2.5 μL of 3x substrate solution (10 nM SLP76 and 10 uM ATP FInal) using BioRaptr. Plates are incubated at room temperature for one hour.

Mitogen-activated protein kinase kinase kinase kinase 1, sequence (Q92918 whole entry): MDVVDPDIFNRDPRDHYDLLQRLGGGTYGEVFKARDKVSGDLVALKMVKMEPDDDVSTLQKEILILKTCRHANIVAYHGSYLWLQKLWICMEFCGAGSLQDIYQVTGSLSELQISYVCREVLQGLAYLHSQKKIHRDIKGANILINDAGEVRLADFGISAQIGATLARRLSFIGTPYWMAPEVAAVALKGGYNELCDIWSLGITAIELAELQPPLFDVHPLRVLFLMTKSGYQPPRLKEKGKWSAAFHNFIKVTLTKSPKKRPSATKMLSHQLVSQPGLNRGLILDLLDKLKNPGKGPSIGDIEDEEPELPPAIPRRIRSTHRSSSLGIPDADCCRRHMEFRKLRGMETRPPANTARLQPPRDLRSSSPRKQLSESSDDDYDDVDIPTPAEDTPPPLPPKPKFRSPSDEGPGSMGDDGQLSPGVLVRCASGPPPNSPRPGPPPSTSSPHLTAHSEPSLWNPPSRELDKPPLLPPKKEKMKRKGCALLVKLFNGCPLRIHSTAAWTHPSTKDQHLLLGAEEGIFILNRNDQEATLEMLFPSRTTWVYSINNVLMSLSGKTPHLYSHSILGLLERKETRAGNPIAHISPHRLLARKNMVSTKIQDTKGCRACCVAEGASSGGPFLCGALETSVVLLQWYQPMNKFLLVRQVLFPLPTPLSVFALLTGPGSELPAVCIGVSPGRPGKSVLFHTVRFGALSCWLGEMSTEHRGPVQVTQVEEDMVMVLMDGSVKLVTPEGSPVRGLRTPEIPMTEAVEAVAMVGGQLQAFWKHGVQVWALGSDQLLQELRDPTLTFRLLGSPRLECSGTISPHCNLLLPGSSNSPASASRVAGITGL

| SMILES | pIC50 |
| --- | --- |
| COc1cc2c(cc1Nc1ncc(C(N)=O)c(Nc3ccc(C)cc3C3CC3)n1)CN(C)CC2 [WO2022098809, Example 4-26] | 9.77 |
| CCc1cc(C)ccc1Nc1nc(Nc2cc3c(cc2OC)CCN(C)C3)ncc1C(N)=O [WO2022098809, Example 4-27] | 10.10 |
| COc1cc2c(cc1Nc1ncc(C(N)=O)c(Nc3ccc(C)cc3C(C)(C)C)n1)CN(C)CC2 [WO2022098809, Example 4-28] | 9.59 |
| Cc1cc(F)c(Nc2nc(Nc3cc4c(cc3F)CCN(C)C4)ncc2C(N)=O)c(C(F)(F)F)c1 [WO2022098809, Example 4-29] | 9.70 |

More lines, now with the values ahead:

| pIC50 | SMILES |
| --- | --- |
| 9.70 | COc1cc2c(cc1Nc1ncc(C(N)=O)c(Nc3c(F)cccc3CC(F)F)n1)CN(C)CC2 [WO2022098809, Example 4-31] |
| 8.95 | CN1CCc2cc(F)c(Nc3ncc(C(N)=O)c(Nc4c(F)ccc5c4OC(C)(C)C5)n3)cc2C1 [WO2022098809, Example 4-32] |
| 6.80 | Cc1cccc(F)c1Nc1nc(Nc2c(C)nn(C)c2C)ncc1C(N)=O [WO2022098809, Example 4-35] |
